Experimental data published in article PMC12655457, “Does CytoSorb Interfere with Immunosuppression? A Pharmacokinetic and Functional Evaluation” (Pharmaceutics, 2025).

Key:
[1] = Static CytoSorb adsorption setup (spiked plasma with CytoSorb resin); format: in vitro ADME, human; conditions: plasma:resin 1:10 v/v, 60 min, 37 °C, n = 3
Description: (§1) Plasma was obtained by centrifugation (3500× g, 10 min) from citrate-anticoagulated human whole blood and spiked with immunosuppressants to defined target concentrations (Table 1). To evaluate adsorption, plasma was incubated with the CytoSorb resin at 1:10 (v/v) for 60 min at 37 °C on a roller mixer. In parallel, a separate aliquot of spiked plasma was incubated with autologous blood cells (1:1, v/v) to assess cellular uptake of immunosuppressants. Untreated spiked plasma served as control (Figure 1a). Samples were collected before and after incubation for subsequent analysis.
(§2) MPA was determined using a validated test for the Cobas c311 autoanalyzer from Roche (Basel, Switzerland). 6-MP was quantified by reversed-phase HPLC [17, 18]. After precipitation of the plasma sample with ice cold methanol in ratio 1:5, 30 µL of the supernatant was injected into a Nukleosil 100-5C18, 4.6 × 150 mm C18 column (Macherey-Nagel, Düren, Germany), combined with an Onyx Monolithic C18, 4.6 × 5 mm guard column (Phenomenex, Torrance, CA, USA). The mobile phase consisted of methanol and deionised water (50:50) which was continuously pumped with a flow rate of 0.8 mL/min for five minutes. 6-MP was quantified with a retention time of 2.3 min using an UV detector (325 nm). The quantification of cytokines was determined by Magnetic Luminex Assay with a human premixed Multi Analyte Kit (R&D Systems, Minneapolis, MN, USA). The urea, albumin and total protein levels were measured with the cobas c311 automated analyzer with corresponding test kits from Roche (Penzberg, Germany).

autologous blood cells = experiment: Cellular uptake of immunosuppressants by autologous blood cells (static setup); format: in vitro ADME, human; conditions: spiked plasma with autologous blood cells 1:1 v/v, n = 3
Description: as §1
MPA was determined using a validated test for the Cobas c311 autoanalyzer from Roche (Basel, Switzerland). 6-MP was quantified by reversed-phase HPLC [17, 18]. […] 6-MP was quantified with a retention time of 2.3 min using an UV detector (325 nm). The quantification of cytokines was determined by Magnetic Luminex Assay with a human premixed Multi Analyte Kit (R&D Systems, Minneapolis, MN, USA). The urea, albumin and total protein levels were measured with the cobas c311 automated analyzer with corresponding test kits from Roche (Penzberg, Germany).

[2] = Determination of protein binding by ultrafiltration; format: in vitro ADME; conditions: human plasma, ultrafiltration 30 kDa cutoff; read-out: Protein Binding in Plasma, Current Study (converted)
Description: To assess protein binding of the tested immunosuppressants, human plasma was spiked with the respective drugs and urea as a freely diffusible control. Samples were then subjected to ultrafiltration (30 kDa cutoff, 15,000× g, 20 min). The protein-bound fraction was calculated using the following formula:(1) protein binding %= 1−Cfiltrate/Cplasma where cplasma is the concentration of each compound in plasma and cfiltrate is its concentration in the ultrafiltrate.

[3] = Dynamic CytoSorb adsorption setup (scaled-down circuit, whole blood); format: in vitro ADME, human
Description: To quantify the depletion of selected immunosuppressants during CytoSorb treatment under dynamic conditions, a scaled-down extracorporeal circulation system was established, consisting of a 30 mL CytoSorb adsorption cartridge and a pediatric tubing set filled with 400 mL of freshly drawn human whole blood (Figure 1b). To distinguish between drug removal by adsorption versus uptake by blood components, a control circuit with an identical setup but an empty cartridge was run in parallel for each experiment. Whole blood from two healthy donors of the same blood group was pooled, anticoagulated with citrate (final concentration: 7 mM), spiked with the immunosuppressants, and divided into two 400 mL blood bags.
Prior to circulation, the entire system was flushed with isotonic saline. Then, one of the prepared blood bags (Group 1 or Group 2) was connected to the circuit and circulated for 30 min at 37 °C without the adsorber cartridge to allow for equilibration. Following this equilibration, a baseline sample (0 min) was collected, and the adsorption column was introduced into the circuit. In the adsorption circuit, samples were collected at 15, 30, 60, 120, 180 and 240 min. In the control circuit, samples were taken at baseline and after 240 min. All blood samples were centrifuged (3500× g, 10 min) to separate plasma, which was stored at −80 °C until further analysis.
(§3) The clearance (C) of each compound during both the dialysis and the dynamic CytoSorb experiments was calculated using the first-order exponential decay formula:(2) C = V/t ×lnCo/Ct where V = plasma volume, t = treatment time [min], C0 = concentration before starting treatment, Ct = concentration at time t.
as §2

[4] = Removal of immunosuppressants by chronic dialysis (ex vivo, plasma); format: in vitro ADME, human
Description: (§4) To evaluate the effect of dialysis under clinically relevant conditions, both chronic and acute dialysis settings were simulated using standard Fresenius systems. In all experiments, 1.5 L of citrated human plasma was dialyzed against calcium-free dialysate at 37 °C.
(§5) Prior to circulation, the systems were flushed with 2 L of isotonic saline. Plasma samples were collected at defined time points (15–480 min) and analyzed for immunosuppressants, urea, and albumin. Chronic dialysis represents intermittent high-flow conditions, whereas acute dialysis mimics continuous low-flow therapy used in critically ill patients.
as §3

[5] = Removal of immunosuppressants by acute dialysis (CVVHD, ex vivo, plasma); format: in vitro ADME, human
Description: as §4, §5, §3

[6] = Whole blood cell model: immunosuppressant serum levels after CytoSorb treatment; format: in vitro ADME, human; conditions: overnight incubation, p < 0.05, n = 6
Description: To investigate whether the in vitro depletion of immunosuppressants by CytoSorb affects immunosuppression, a whole blood cell model was established. The experiment was conducted over two consecutive days. A graphical overview of the setup is provided in Supplementary Figure S1. On day one, freshly drawn human whole blood was incubated overnight at 37 °C with various immunosuppressants, either individually or in combination, to allow for sufficient drug exposure prior to CytoSorb treatment.
Subsequently, the blood was split into two experimental groups: one was treated with CytoSorb in a batch setup, and the other served as an untreated control, incubated under identical conditions at 37 °C on a roller mixer. Following treatment, all samples were allowed to rest for 4 h. After the resting period, blood samples were stimulated with either lipopolysaccharide (LPS) E. coli or with anti-CD3 antibodies. LPS primarily activates monocytes and neutrophils via the TLR4/CD14/MD2 complex, while anti-CD3 specifically stimulates T cells. The stimulation was carried out for 4 h at 37 °C on a roller mixer. Thereafter, the blood samples were centrifuged, and the plasma was collected and stored at −80 °C. Leukocyte activation was assessed by quantification of IL-1β, IL-6, IL-8, and TNF-α.
as §2

human whole blood [7] = experiment: Whole blood cell model: LPS stimulation, cytokine measurement; format: cell-based; conditions: + CytoSorb
Description: (§6) Subsequently, the blood was split into two experimental groups: one was treated with CytoSorb in a batch setup, and the other served as an untreated control, incubated under identical conditions at 37 °C on a roller mixer. Following treatment, all samples were allowed to rest for 4 h. After the resting period, blood samples were stimulated with either lipopolysaccharide (LPS) E. coli or with anti-CD3 antibodies. […] The stimulation was carried out for 4 h at 37 °C on a roller mixer. Thereafter, the blood samples were centrifuged, and the plasma was collected and stored at −80 °C. Leukocyte activation was assessed by quantification of IL-1β, IL-6, IL-8, and TNF-α.

human whole blood [8] = experiment: Whole blood cell model: anti-CD3 stimulation, cytokine measurement; format: cell-based; conditions: + Anti-CD3, + CytoSorb
Description: as §6

[9] = parameters: method as in earlier work; conditions: literature; ref 23 (methylprednisolone), 24 (mycophenolate), 41 (6-mercaptopurine); cited from earlier work
[10] = literature; ref 21 (6-MP), 22 (CsA), 23 (MPR), 24 (MPA), 25 (TAC); cited from earlier work

reduction of level in plasma by CytoSorb [1]: 33 ± 11% | absorbed / reduced by blood cells (autologous blood cells): 36 ± 6% | fraction unbound [2]: 0.662 | mean clearance rate ([3]; CytoSorb treatment, at 15 min, Equation (2)): ~31 mL/min | adsorption (removal) by CytoSorb ([3]; dynamic ex vivo circuit, 400 mL human whole blood, 30 mL cartridge, 4 h): 47 ± 16% | removal by dialysis (in words) [4]: efficiently removed | clearance ([4]; initial values): ~ 190 mL/min | removal by dialysis (in words) [5]: efficiently removed | clearance ([5]; after 8 h): below 10 mL/min | clearance ([5]; highest value reached): up to 30 mL/min | reduction in serum level following CytoSorb treatment (in words) [6]: significant reduction
SMILES: Sc1ncnc2nc[nH]c12 [6-MP, 6-mercaptopurine]
IL-1β serum level (human whole blood [7]; test 1): 354 pg/mL | IL-6 serum level (human whole blood [7]; test 1): 3786 pg/mL | IL-8 serum level (human whole blood [7]; test 1): 6337 pg/mL | TNF-α serum level (human whole blood [7]; test 1): 2920 pg/mL | IL-1β serum level (human whole blood [7]; test 2): 44 pg/mL | IL-6 serum level (human whole blood [7]; test 2): 730 pg/mL | IL-8 serum level (human whole blood [7]; test 2): 2253 pg/mL | TNF-α serum level (human whole blood [7]; test 2): 1762 pg/mL | IL-1β serum level (human whole blood [7]; test 3): 190 pg/mL | IL-6 serum level (human whole blood [7]; test 3): 3799 pg/mL | IL-8 serum level (human whole blood [7]; test 3): 7104 pg/mL | TNF-α serum level (human whole blood [7]; test 3): 1250 pg/mL | IL-1β serum level (human whole blood [8]; test 1): 0 pg/mL | IL-6 serum level (human whole blood [8]; test 1): 3 pg/mL | IL-8 serum level (human whole blood [8]; test 1): 205 pg/mL | TNF-α serum level (human whole blood [8]; test 1): 12 pg/mL | IL-1β serum level (human whole blood [8]; test 2): 75 pg/mL | IL-6 serum level (human whole blood [8]; test 2): 381 pg/mL | IL-8 serum level (human whole blood [8]; test 2): 4175 pg/mL | TNF-α serum level (human whole blood [8]; test 2): 46 pg/mL | IL-1β serum level (human whole blood [8]; test 3): 70 pg/mL | IL-6 serum level (human whole blood [8]; test 3): 30 pg/mL | IL-8 serum level (human whole blood [8]; test 3): 686 pg/mL | TNF-α serum level (human whole blood [8]; test 3): 41 pg/mL | volume of distribution (Vd) [9]: ≈ 0.9 L/kg | Protein Binding in Plasma, Reference [10]: 39 [21] %
